# Reference: patent US20220290105A1, “MESENCHYMAL STEM CELLS WITH ENHANCED THERAPEUTIC PROPERTIES” (CELLS FOR CELLS S.A., priority 2019, published 2022)
# Entries after “also recorded” stand apart in the source; their conditions may differ. Read-outs that look alike come from different tables or passages of the source.
# Key:
# [1] = test system: UC-MSCs; experiment: Metabolic status (OCR, ECAR, lactate efflux) and surface markers of treated MSCs (FIG. 4); assay type: cell-based
# From the text: FIG. 4. […] (A) MSCs treated with ATP-Synthase inhibitors show a diminished oxidative phosphorylation, quantified as oxygen consumption rate (OCR), (B) and an enhanced glycolysis, shown as extracellular acidification rate (ECAR).
# In order to determine the efficiency of MSCs treated with ATP-synthase inhibitors, the inventors first evaluated the glycolytic status of UC-MSCs using biochemical parameters such as lactate production and glucose consumption and also if possible, the metabolic status of MSCs treated with ATP-synthase inhibitors was evaluated in real time by measuring the oxygen consumption rate (OCR) or the extra cellular acidification rate (ECAR) by the Seahorse™ technology. Moreover, different functional assays were carried out in order to compare the efficacy of MSCs treated with ATP-synthase inhibitors as compared to non-treated UC-MSCs including evaluation of the differentiation potential towards chondrocytes, viability assays of MSCs, chondroprotection assays, immunosuppression assays and in vivo evaluation using joint inflammation murine models.
# [2] = test system: UC-MSCs; experiment: Chondrogenic differentiation of UC-MSCs: micromass, Aggrecan qPCR, Collagen II vs Collagen I ratio (FIG. 5); assay type: cell-based; conditions: basal media; for ratio of Collagen II vs Collagen I production: compared to MSC in basal media (CTL)
# From the text: FIG. 5. […] UC-MSCs were differentiated towards chondrogenic lineage. […] The relative expression of the proteoglycan Aggrecan, which is typically expressed in hyaline cartilage, was quantified by qPCR. […] When MSC on basal media (CTL) are compared to MSC treated with inhibitors of the ATP-synthase, these treated MSC present chondrogenic behaviour on the ratio of Collagen II vs Collagen I proportion. […] Also, some inhibitors present the same behaviour than MSC in differentiation media (differentiation) (D).
# [3] = test system: GVHD mice; experiment: In vivo model of graft versus host disease (GVHD), Kaplan-Meier survival (FIG. 9); conditions: UC-MSCs pre-treated or not with oligomycin
# From the text: FIG. 9. […] A) Experimental design of the in vivo model of GVHD. B) Kaplan-Meier plot showing the survival rate of GVHD mice compared to UC-MSCs that were pre-treated or not with oligomycin. N=15 mice per experimental group performed at least 2 times independently—* p<0.05.
# [4] = test system: mice with DTH; experiment: In vivo model of delayed type hypersensitivity (DTH), paw swelling (FIG. 8); conditions: mice treated with MSCs pre-incubated with or without oligomycin
# [5] = test system: UC-MSCs; experiment: Transmigration of UC-MSCs through a semipermeable membrane with 8 μM pores (FIG. 11); assay type: cell-based; conditions: quantified at 8 hours and 24 hours; 5% fetal bovine serum in lower chamber
# Description: FIG. 11. UC-MSCs pretreated with oligomycin promote their transmigration potential. GlycoStem cells were cultured on a semipermeable membrane with […] diameter pores. Cells were seeded in serum-free medium in the upper chamber, while DMEM medium with 5% fetal bovine serum was added in the lower chamber to induce transmigration of the cells. Cell migration was quantified 8 hours (A and B) and 24 hours (C and D) later. […] N=3 different donors from 3 independent experiments * p<0.05.
# [6] = test system: human mononuclear cells (PBMC); experiment: Immunosuppression at different oligomycin pretreatment concentrations, co-culture with human PBMC (FIG. 14); assay type: cell-based; conditions: pretreatment at 0.1 μg/ml, 1 μg/ml and 10 μg/ml; 4 days co-culture
# Description: FIG. 14. […] MSC were with different oligomycin concentration (0.1 μg/ml, 1 μg/ml and 10 μg/ml), the media was removed and the cells were washed and cultured with freshly isolated human mononuclear cells (PBMC) that were stained with cell trace violet. Proliferation of CD4+ and CD8+ was quantified after 4 days of co-culturing by flow cytometry and graphed. N=3 PBMC and * p<0.05.
# The inventors developed and immunosuppression experiment where the MSCs were pretreated with different concentrations of ATP-Synthase inhibitor, such as Oligomycin, more specifically at 0.1 μg/ml, 1 μg/ml and 10 μg/ml. After the pretreatment, the media with ATP-synthase inhibitor was removed, the MSCs were washed, and the MSC were cultured with freshly isolated human mononuclear cells (PBMC) that were stained with cell trace violet.
# [7] = test system: murine CD4; experiment: Immunosuppression after 6 or 24 hours pretreatment, co-culture with murine CD4 (FIG. 15); assay type: cell-based; conditions: 3 days co-culture
# Description: FIG. 15. […] MSC were treated for 6 and 24 hours oligomycin. Then, the media was removed, the cells were washed and these pretreated MSCs were co-cultured during 3 days with freshly isolated murine CD4 that were stained with cell trace violet. Proliferation of CD4+ was quantified by flow cytometry and graphed. N=4 different mice and * p<0.05.
# The inventor developed an incubation experiment were the MSC were treated for 6 and 24 hours with an ATP-Synthase inhibitor, such as Oligomycin. After this treatment, the media with ATP-synthase inhibitor was removed, the MSCs were washed, and the MSCs were co-cultured during 3 days with murine freshly isolated CD4 and their effects were compared.
# [8] = test system: PBMC; experiment: Coculture of human BM-MSCs, UC-MSCs or MenSC with phytohemaglutinine-activated PBMC, T-CD4 and T-CD8 proliferation by FACS (FIG. 12); assay type: cell-based; conditions: BM-MSCs, 1 MSCs:20 PBMCs ratio, 4 days
# Description: FIG. 12. […] Human BM-MSCs, UC-MSCs or MenSC were coculture with freshly isolated PBMC activated with phytohemaglutinine in a 1 MSCs:20 PBMCs ratio. After 4 days proliferation was measured by quantifying the decrease in cell fluorescence on either T-CD4 (A) or T-CD8 (B) cells in PBMCs by FACS. Results are represented as mean and SD of 3 independent experiments using at least 3 different PBMC donors and 2 different BM-MSCs, MenSC and UC-MSCs donors. Statistical analyses used the non-parametric Friedman test comparing more than two groups (*, p<0.05; **, p<0.01; ***, p<0.005).
Compound,metabolic switch towards glycolytic dependent metabolism (ECAR/OCR ratio) [1],Surface markers of UC-MSC ([1]; after metabolic switch),metabolic switch towards glycolytic dependent metabolism (ECAR/OCR ratio) ([1]; listed as Oligomycin),ratio of Collagen II vs Collagen I production [2],relative expression of the proteoglycan Aggrecan (qPCR) ([2]; compared to untreated control),"generation of three-dimensional tissue (micromass) / spontaneous differentiation into chondrocytes ([2]; no differentiation media, 24Hrs pre-treatment)",survival rate of GVHD mice [3],limb swelling (Paw Swelling) / inflammation in DTH [4],transmigration / migratory capacity [5],suppressive activity (proliferation of CD4+ and CD8+) [6],suppressive activity (proliferation of CD4+) ([7]; 6 hours pretreatment),suppressive activity (proliferation of CD4+) ([7]; 24 hours pretreatment),immunosuppressive abilities of human MSCs (T-CD4 and T-CD8 proliferation) [8]
"CC[C@H]1/C=C/C=C/C[C@@H](C)[C@H](O)[C@@](C)(O)C(=O)[C@@H](C)[C@H](O)[C@@H](C)C(=O)[C@@H](C)[C@H](O)[C@@H](C)/C=C/C(=O)O[C@@H]2[C@H](C)[C@H](CC1)O[C@]1(CC[C@H](C)[C@H](C[C@@H](C)O)O1)[C@H]2C [oligomycin, Oligomycin]",inducing a strongly glycolytic-dependent metabolism,not affected,induces a glycolytic dependent metabolism,fold change in the production of collagen type 2 versus collagen type 1,increased relative expression; also recorded: increase in the relative expression,even greater than the three-dimensional tissue obtained by using the differentiation media alone; also recorded: spontaneously differentiate into chondrocytes; also recorded: stimulates the spontaneous differentiation towards a functional three-dimensional cartilage,increases the survival rate,increases the therapeutic potential of MSCs,significantly increase their migratory capacity,enhanced suppressive activity that is dose dependent,enhanced the suppressive activity of MSCs,enhanced suppressive activity; also recorded: highest enhancement of the MSCs suppression activity,enhances the immunosuppressive abilities of human MSCs independent on the origin
"Oc1ccc(C=Cc2cc(O)cc(O)c2)cc1 [resveratrol, Resveratrol]",–,–,–,fold change in the production of collagen type 2 versus collagen type 1; also recorded: promote the MSC in basal media to behave as MSC that are in a differentiation media,–,–,–,–,–,–,–,–,–
